Laboratory results from patent US12065445B2, “CDK2 inhibitors and methods of using the same” (Cedilla Therapeutics, Inc., priority 2021, dated 2024).

Columns and labels:
Kuramochi cells = assay: BrdU Cell Proliferation Assay; format: cell-based; settings: read-out: BrdU - KURAMOCHI.1: IC50
In short: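 Signal is 450 nm absorbance from a peroxidase anti-BrdU ELISA after a 1-hour BrdU label, background-subtracted and normalized to DMSO-treated wells. Kuramochi cells (2,000 per well) had been exposed to compound for 4 days. Dosing used a 10-point dose response in 3-fold steps.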

[1] = test system: Kuramochi cells labeled with mApple-H2B; assay: IncuCyte Cell Proliferation Assay; format: cell-based
Description: IncuCyte® assay was used to measure the effect of disclosed compounds on cell proliferation. Fluorescent microscopy images of cells were taken immediately after compound treatment and 72 hours later. Image analysis software was used to obtain cell counts as a function of compound concentration. Kuramochi cells labeled with mApple-H2B were seeded on 384-well assay-ready plates. Plates were placed in an IncuCyte® (Sartorius) and scanned at 0 and 72 hours. IncuCyte® software was used to count the number of fluorescent nuclei in each well. The fold change in cell count from 0 to 72 hours in wells treated with increasing compounds concentrations (10 pts, ½ log dilution, 20 μM top concentration) was normalized to DMSO control wells. The normalized cell counts were fit with dose response curves and a […] was calculated.

SMILES	IC50 (Kuramochi cells)	IC50 ([1]; 72 h)	IC50 ([1]; 72 hours)
CNC(=O)[C@@H](NC(=O)[C@@H]1CN(Cc2cncs2)CC12CN(C(=O)[C@H]1CC1(C)C)C2)[C@@H](C)OCc1ccccc1 [I-51A]	5 to 10 µM	5 to 20 µM	
C[C@@H](OCc1ccccc1)[C@H](NC(=O)C1CN(C(=O)c2cnn(Cc3ccccc3)c2)CC12CN(C(=O)[C@H]1CC1(C)C)C2)C(=O)N1CCCCC1 (stereo partly drawn) [I-97, 6-(1-benzyl-1H-pyrazole-4-carbonyl)-N-((2S,3R)-3-(benzyloxy)-1-oxo-1-(piperidin-1-yl)butan-2-yl)-2-((S)-2,2-dimethylcyclopropanecarbonyl)-2,6-diazaspiro[3.4]octane-8-carboxamide]	0.5 to 5 µM	0.5 to 5 µM	
C[C@@H]1C[C@H](C)CN(C(=O)[C@@H](NC(=O)C2CN(C(=O)c3cnn(Cc4ccccc4)c3)CC23CN(C(=O)[C@H]2CC2(C)C)C3)[C@@H](C)OCC2CCCCC2)C1 (some centres unmarked) [I-104]	≤ 0.5 µM	0.5 to 5 µM	
C[C@@H](OCC1CCCCC1)[C@H](NC(=O)C1CN(C(=O)c2cnn(Cc3ccccc3)c2)CC12CN(C(=O)[C@H]1CC1(C)C)C2)C(=O)N1CCCC(CO)C1 (some centres unmarked) [I-105]	≤ 0.5 µM	≤ 0.5 µM	
C[C@@H](OCC1CCCCC1)[C@H](NC(=O)C1CN(C(=O)c2cnn(Cc3ccccc3)c2)CC12CN(C(=O)[C@H]1CC1(C)C)C2)C(=O)N1CC2(CCC2)C1 (some centres unmarked) [I-107]	≤ 0.5 µM	≤ 0.5 µM	
CNC(=O)[C@@H](NC(=O)[C@H]1CN(C(=O)c2cnn(Cc3ccccc3)c2)CC12CN(C(=O)[C@H]1CC1(C)C)C2)[C@@H](C)OCC1CCCC1 [I-110B]	5 to 10 µM	5 to 20 µM	
C[C@@H](OCC1CCCCC1)[C@H](NC(=O)[C@@H]1CN(C(=O)c2cnn(C(F)(F)F)c2)CC12CN(C(=O)[C@H]1CC1(C)C)C2)C(=O)N1CCCCC1 [I-115]	> 10 µM	5 to 20 µM	
CC(=O)N1C[C@@H](C(=O)N[C@H](C(=O)N2CCCCC2)[C@@H](C)OCC2CCCCC2)C2(C1)CN(C(=O)[C@H]1CC1(C)C)C2 [I-118]	> 10 µM	> 20 µM	
CNC(=O)[C@@H](NC(=O)[C@@H]1CN(C(=O)c2cnn(Cc3ccccc3)c2)CC12CN(C(=O)[C@H]1CC1(C)C)C2)[C@@H](C)OCC1CCCCC1 [I-123A, (S)-6-(1-benzyl-1H-pyrazole-4-carbonyl)-N-((2S,3R)-3-(cyclohexylmethoxy)-1-(methylamino)-1-oxobutan-2-yl)-2-((S)-2,2-dimethylcyclopropane-1-carbonyl)-2,6-diazaspiro[3.4]octane-8-carboxamide]	≤ 0.5 µM	0.5 to 5 µM	
CNC(=O)[C@@H](NC(=O)[C@@H]1CN(C(=O)c2cnn(Cc3ccccc3)c2)CC12CN(C(=O)[C@H]1CC1(C)C)C2)[C@@H](C)OCCC1CCCCC1 [I-125A]	≤ 0.5 µM	≤ 0.5 µM	
CNC(=O)[C@@H](NC(=O)[C@H]1CN(C(=O)c2cnn(Cc3ccccc3)c2)CC12CN(C(=O)[C@H]1CC1(C)C)C2)[C@@H](C)OCCC1CCCCC1 [I-125B]	0.5 to 5 µM	0.5 to 5 µM	
CNC(=O)[C@@H](NC(=O)[C@@H]1CN(C(=O)c2cncs2)CC12CN(C(=O)[C@H]1CC1(C)C)C2)[C@@H](C)OCC1CCCCC1 [I-129A]	0.5 to 5 µM	0.5 to 5 µM	
CNC(=O)[C@@H](NC(=O)[C@@H]1CN(C(=O)c2cnn(Cc3ccccc3)c2)CC12CN(C(=O)[C@H]1CC1(C)C)C2)[C@@H](C)OCC(C)(C)C [I-130A]	5 to 10 µM	5 to 20 µM	
CO[C@H]1COCC[C@@H]1NC(=O)[C@@H]1CN(C(=O)c2cnn(Cc3ccccc3)c2)CC12CN(C(=O)[C@H]1CC1(C)C)C2 [I-131A]	> 10 µM	> 20 µM	
C[C@@H](OCC1CCCCC1)[C@H](NC(=O)[C@@H]1CN(C(=O)c2cnn(CC(F)(F)F)c2)CC12CN(C(=O)[C@H]1CC1(C)C)C2)C(=O)N1CCCCC1 [I-132]	0.5 to 5 µM	0.5 to 5 µM	
CC1(C)C[C@@H]1C(=O)N1CC2(CN(C(=O)c3cnn(Cc4ccccc4)c3)C[C@@H]2C(=O)N[C@H]2CCc3cc(Cl)ccc32)C1 [I-133B]	> 10 µM	> 20 µM	
CO[C@H]1COCC[C@H]1NC(=O)[C@@H]1CN(C(=O)c2cnn(Cc3ccccc3)c2)CC12CN(C(=O)[C@H]1CC1(C)C)C2 [I-134A]	> 10 µM	> 20 µM	
CO[C@H]1COCC[C@H]1NC(=O)[C@H]1CN(C(=O)c2cnn(Cc3ccccc3)c2)CC12CN(C(=O)[C@H]1CC1(C)C)C2 [I-134B]	> 10 µM	> 20 µM	
C[C@@H](OCC1CCCCC1)[C@@H](CO)NC(=O)[C@@H]1CN(C(=O)c2cnn(Cc3ccccc3)c2)CC12CN(C(=O)[C@H]1CC1(C)C)C2 [I-135A]	0.5 to 5 µM	0.5 to 5 µM	
C[C@@H](OCC1CCCCC1)[C@@H](CO)NC(=O)[C@H]1CN(C(=O)c2cnn(Cc3ccccc3)c2)CC12CN(C(=O)[C@H]1CC1(C)C)C2 [I-135B]	> 10 µM	5 to 20 µM	
CNC(=O)[C@@H](NC(=O)[C@@H]1CN(C(=O)c2cnn(Cc3ccc(F)cc3)c2)CC12CN(C(=O)[C@H]1CC1(C)C)C2)[C@@H](C)OCc1ccc(F)cc1 [I-136A]	0.5 to 5 µM	5 to 20 µM	

SMILES	IC50 (Kuramochi cells)	IC50 ([1]; 72 h)	IC50 ([1]; 72 hours)
CNC(=O)[C@@H](NC(=O)[C@@H]1CN(C(=O)c2cnn(Cc3ccccc3)c2)CC12CN(C(=O)[C@H]1CC1(C)C)C2)[C@@H](C)OCC(C)C [I-137A]	> 10 µM	> 20 µM	
CNC(=O)[C@@H](NC(=O)[C@H]1CN(C(=O)c2cnn(Cc3ccccc3)c2)CC12CN(C(=O)[C@H]1CC1(C)C)C2)[C@@H](C)OCC(C)C [I-137B]	> 10 µM	> 20 µM	
C[C@@H](OCC1CCCCC1)[C@H](NC(=O)C1CN(C(=O)c2cncs2)CC12CN(C(=O)[C@H]1CC1(C)C)C2)C(=O)N1CCOCC1 (some centres unmarked) [I-138]	≤ 0.5 µM	≤ 0.5 µM	
CC1(C)C[C@@H]1C(=O)N1CC2(CN(C(=O)c3cnn(Cc4ccccc4)c3)C[C@H]2C(=O)N[C@H]2C[C@@H]2c2cccc(Cl)c2)C1 [I-140A]	> 10 µM	5 to 20 µM	
CNC(=O)[C@@H](NC(=O)[C@H]1CN(C(=O)c2cnn(Cc3ccccc3)c2)CC12CN(C(=O)[C@H]1CC1(C)C)C2)[C@@H](C)OCC1CCC(C(F)(F)F)CC1 (some centres unmarked) [I-141B]	0.5 to 5 µM	5 to 20 µM	
C[C@@H](OCC1CCCCC1)[C@H](NC(=O)C1CN(C(=O)c2cnn(Cc3ccccc3)c2)CC12CN(C(=O)[C@H]1CC1(C)C)C2)C(=O)N1CCC(F)(F)CC1 (some centres unmarked) [I-149 mixture]	≤ 0.5 µM	≤ 0.5 µM	
C[C@@H](OCC1CCCCC1)[C@H](NC(=O)[C@@H]1CN(C(=O)c2cnn(Cc3ccccc3)c2)CC12CN(C(=O)[C@H]1CC1(C)C)C2)C(=O)N1CCC(F)(F)CC1 [I-149A]	≤ 0.5 µM	≤ 0.5 µM	
C[C@@H](OCC1CCCCC1)[C@H](NC(=O)[C@@H]1CN(C(=O)c2cn[nH]c2)CC12CN(C(=O)[C@H]1CC1(C)C)C2)C(=O)N1CCCCC1 [I-151A]	0.5 to 5 µM	0.5 to 5 µM	
COC[C@H]1CCCN(C(=O)[C@@H](NC(=O)[C@@H]2CN(C(=O)c3cncs3)CC23CN(C(=O)[C@H]2CC2(C)C)C3)[C@@H](C)O[C@@H](C)C2CCCCC2)C1 [I-467]			0.5 to 5 µM
C[C@@H](OCc1ccc(C(F)(F)F)cc1)[C@H](NC(=O)[C@@H]1CN(C(=O)c2cncs2)CC12CN(C(=O)[C@H]1CC1(C)C)C2)C(=O)N1C2CCC1COC2 [I-470]		0.5 to 5 µM	
C[C@@H](OCC12CCC(CC1)OC2)[C@H](NC(=O)[C@@H]1CN(C(=O)c2sc(Cl)nc2Cl)CC12CN(C(=O)C(C)(C)C1CC1)C2)C(C)(C)O [I-471]		> 20 µM	
CNC(=O)[C@@H](NC(=O)[C@@H]1CN(C(=O)c2cnn(Cc3ccc(C(=O)O)cc3)c2)CC12CN(C(=O)[C@H]1CC1(C)C)C2)[C@@H](C)OCc1ccccc1 [I-476]		> 20 µM	
C[C@@H](OCC1CCCCC1)[C@H](NC(=O)[C@@H]1CN(C(=O)c2cnn(Cc3ccccc3)c2)CC12CN(C(=O)[C@H]1CC1(C)C)C2)C(=O)O [I-477]		> 20 µM	
C[C@@H](OCC1CCCCC1)[C@H](NC(=O)[C@@H]1CN(C(=O)c2cnn(Cc3ccccc3)c2)CC12CN(C(=O)[C@H]1CC1(C)C)C2)C(=O)NCCC(=O)OC(C)(C)C [I-478]		≤ 0.5 µM	
CC1(C)C[C@@H]1C(=O)N1CC2(CN(C(=O)c3cncs3)C[C@H]2C(=O)NC(c2cccc(C3CCCCC3)n2)C2CCOC2)C1 (some centres unmarked) [I-493]		5 to 20 µM	
CC1(C)C[C@@H]1C(=O)N1CC2(CN(C(=O)c3cncs3)C[C@H]2C(=O)NC(c2cccc(C3CCCCC3)n2)C2CCCO2)C1 (some centres unmarked) [I-495]		0.5 to 5 µM	
CC1(C)C[C@@H]1C(=O)N1CC2(CN(C(=O)c3cncs3)C[C@H]2C(=O)NC(c2cccc(C3CCOCC3)n2)C2CCCO2)C1 (some centres unmarked) [I-497]		> 20 µM	
CNC(=O)[C@@H](NC(=O)C1(C)CN(C(=O)c2cnn(Cc3ccccc3)c2)CC12CN(C(=O)[C@H]1CC1(C)C)C2)[C@@H](C)OCc1ccccc1 (stereo partly drawn) [I-498, 6-(1-benzyl-1H-pyrazole-4-carbonyl)-N-((2S,3R)-3-(benzyloxy)-1-(methylamino)-1-oxobutan-2-yl)-2-((S)-2,2-dimethylcyclopropane-1-carbonyl)-8-methyl-2,6-diazaspiro[3.4]octane-8-carboxamide]		> 20 µM	
CNC(=O)[C@@H](NC(=O)[C@]1(C)CN(C(=O)c2cnn(Cc3ccccc3)c2)CC12CN(C(=O)[C@H]1CC1(C)C)C2)[C@@H](C)OCC1CCCCC1 [I-499A]		> 20 µM	
CNC(=O)[C@@H](NC(=O)[C@@]1(C)CN(C(=O)c2cnn(Cc3ccccc3)c2)CC12CN(C(=O)[C@H]1CC1(C)C)C2)[C@@H](C)OCC1CCCCC1 [I-499B]		> 20 µM	
CNC(=O)[C@@H](NC(=O)C1(F)CN(C(=O)c2cnn(Cc3ccccc3)c2)CC12CN(C(=O)[C@H]1CC1(C)C)C2)[C@@H](C)OCC1CCCCC1 (some centres unmarked) [I-501]		0.5 to 5 µM	
